Measurements from PMC9469500, “Targeting an Initiator Allergen Provides Durable and Expansive Protection against House Dust Mite Allergy” (ACS Pharmacology & Translational Science, 2022).

Assays:
unsensitized BN rats = experiment: HDM extract challenge in unsensitized (naive) BN rats, duration of protection; format: in vivo; settings: for performance in vivo (maximum inhibition of the eosinophil response, Figure 5A): focused library, durability of inhibition studies
Der p 1 = molecular target: T1, Der p 1 (Dermatophagoides pteronyssinus, UniProt P08176); format: biochemical; settings: Figure 5A, in words
T1 construct: from tissue; host or cells: spent culture medium of Dermatophagoides pteronyssinus (native HDM extract); ammonium sulfate precipitation, size exclusion, SBTI column, Resource Q
T1 sequence (P08176 99-320): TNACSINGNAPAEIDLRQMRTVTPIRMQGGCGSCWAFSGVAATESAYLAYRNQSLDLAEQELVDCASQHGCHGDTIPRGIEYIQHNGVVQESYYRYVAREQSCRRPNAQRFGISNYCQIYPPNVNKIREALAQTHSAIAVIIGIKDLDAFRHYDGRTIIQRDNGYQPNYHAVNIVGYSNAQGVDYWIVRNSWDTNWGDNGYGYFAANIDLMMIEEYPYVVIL
Protocol: Assays were assembled in 96-well plate format using a PerkinElmer Multiprobe II Plus HTS EX robot (PerkinElmer, UK). […] Reactions were initiated by the addition of 10 μL Der p 1 dissolved in the reaction buffer at 2.5 μg/mL and followed at 30 °C by measurement of fluorescence (excitation/emission 330/420 nm) using either a Fusion Alpha-FP or Envision plate reader fitted with a temperature-controlled carrier (PerkinElmer, UK).
Inhibitor kinetics were analyzed from progress curves. For reversible inhibitors, IC50 values were calculated conventionally.

[1] = all other time points than those stated not significant, 50:1 molar equivalents
[2] = time points other than the stated exceptions, 50:1 molar equivalents i.t. aerosol
[3] = all time points, naive BN rats, HDM extract 10 µg Der p 1, single i.t. aerosol dose 50:1 molar equivalents
[4] = all time points, naive BN rats, HDM extract 10 µg Der p 1, single i.t. aerosol dose 50:1 molar equivalents to Der p 1

| Molecule | performance in vivo (maximum inhibition of the eosinophil response, Figure 5A) (unsensitized BN rats) | BAL neutrophil response: significance of effect (P<0.05) (unsensitized BN rats; pre-treatment at 60 min) | Reduction in BAL eosinophil response: significance of inhibition (P<0.05) (unsensitized BN rats; [2]) | potency against the target molecule in vitro (Der p 1) | BAL neutrophil response: significance of effect (P<0.05) (unsensitized BN rats; [3]) | Reduction in BAL eosinophil response: significance of inhibition (P<0.05) (unsensitized BN rats; [4]) | further results |
| --- | --- | --- | --- | --- | --- | --- | --- |
| 3-((3S,6S,9S)-3-benzyl-9-isopropyl-6-methyl-1,4,7,10,11-pentaoxo-1-phenyl-2,5,8,12-tetraazatridecan-13-yl)benzoic acid [Compound 7] | effective | not significant | significant | less potent than others | – | – | BAL neutrophil response: significance of effect (P<0.05) (unsensitized BN rats; [1]): significant; BAL neutrophil response: significance of effect (P<0.05) (unsensitized BN rats; pre-treatment at 120 min): not significant; BAL neutrophil response: significance of effect (P<0.05) (unsensitized BN rats; pre-treatment at 360 min): not significant |
| CC(C)[C@H](NC(=O)[C@H](C)NC(=O)[C@@H](NC(=O)c1ccccc1)C(C)(C)C)C(=O)C(=O)NCC(=O)N1CCc2ccccc2C1 [Compound 3, N-[(S)-1-((S)-1-{(S)-1-[2-(3,4-dihydro-1H-isoquinolin-2-yl)-2-oxo-ethylaminooxalyl]-2-methyl-propylcarbamoyl}-ethylcarbamoyl)-2,2-dimethyl-propyl]-benzamide] | – | – | – | – | significant | significant | – |
| CC(C)[C@H](NC(=O)[C@H](C)NC(=O)[C@H](Cc1ccccc1)NC(=O)c1ccccc1)C(=O)C(=O)NCC(=O)N1CC[N+](C)(C)CC1.O=C[O-] [Compound 4, 4-(2-{(S)-3-[(S)-2-((S)-2-benzoylamino-3-phenyl-propionylamino)-propionylamino]-4-methyl-2-oxo-pentanoylamino}-acetyl)-1,1-dimethyl-piperazin-1-ium formate] | effective | – | – | less potent than others | significant | significant | – |
| CC(C)[C@H](NC(=O)[C@H](C)NC(=O)[C@@H](NC(=O)c1ccnc2ccccc12)C(C)(C)C)C(=O)C(=O)NCc1ccccc1 [Compound 5, quinoline-4-carboxylic acid {(S)-1-[(S)-1-((S)-1-benzylaminooxalyl-2-methyl-propylcarbamoyl)-ethylcarbamoyl]-2,2-dimethyl-propyl}-amide] | effective | – | – | less potent than others | significant | significant | onset: temporal separation between drug dosing and HDM challenge required to achieve 50% inhibition of the eosinophil response (unsensitized BN rats; estimated, Figure 5D–F, in words): slower onset |
| CC(C)[C@H](NC(=O)[C@H](C)NC(=O)[C@H](Cc1ccccc1)NC(=O)c1cccc2ccccc12)C(=O)C(=O)NCC(=O)N1CCN(C)CC1 [Compound 8, N-((S)-1-(((S)-1-(((S)-4-methyl-1-((2-(4-methylpiperazin-1-yl)-2-oxoethyl)amino)-1,2-dioxopentan-3-yl)amino)-1-oxopropan-2-yl)amino)-1-oxo-3-phenylpropan-2-yl)-1-naphthamide] | effective | not significant | – | less potent than others | – | significant | BAL neutrophil response: significance of effect (P<0.05) (unsensitized BN rats; [1]): significant |
| CNC(=O)c1ccc(CNC(=O)C(=O)[C@@H](NC(=O)[C@H](C)NC(=O)[C@@H](N2Cc3ccccc3C2=O)C(C)(C)C)C(C)C)cc1 [Compound 9, 4-[((S)-3-{(S)-2-[(S)-3,3-dimethyl-2-(1-oxo-1,3-dihydro-isoindol-2-yl)-butyrylamino]-propionylamino}-4-methyl-2-oxo-pentanoylamino)-methyl]-N-methyl-benzamide] | – | – | significant | – | not significant | – | – |
| CC(C)[C@H](NC(=O)[C@H](C)NC(=O)[C@@H](NC(=O)c1ccnc2ccccc12)C(C)(C)C)C(=O)C(=O)NCC(=O)N1CCN(C(C)C)CC1 [Compound 10, quinoline-4-carboxylic acid [(S)-1-((S)-1-{(S)-1-[2-(4-isopropyl-piperazin-1-yl)-2-oxo-ethylaminooxalyl]-2-methyl-propylcarbamoyl}-ethylcarbamoyl)-2,2-dimethyl-propyl]-amide] | performed less satisfactorily | – | significant | potent | not significant | – | – |
| CC(C)[C@H](NC(=O)[C@H](C)NC(=O)[C@H](Cc1ccccc1)NC(=O)c1ccncc1)C(=O)C(=O)NCc1ccccc1 [Compound 11, N-((S)-1-(((S)-1-(((S)-1-(benzylamino)-4-methyl-1,2-dioxopentan-3-yl)amino)-1-oxopropan-2-yl)amino)-1-oxo-3-phenylpropan-2-yl)isonicotinamide] | effective | – | – | less potent than others | not significant | significant | – |
| CC(C)[C@H](NC(=O)[C@H](C)NC(=O)[C@@H](NC(=O)c1ccncc1)C(C)(C)C)C(=O)C(=O)NC1CCCCC1 [Compound 12, N-{(S)-1-[(S)-1-((S)-1-cyclohexylaminooxalyl-2-methyl-propylcarbamoyl)-ethylcarbamoyl]-2,2-dimethyl-propyl}-isonicotinamide] | – | – | – | – | – | significant | – |
| CC(C)[C@H](NC(=O)[C@H](C)NC(=O)[C@H](Cc1ccccc1)NC(=O)c1ccccc1)C(=O)C(=O)NCC(=O)N1CCOCC1 [Compound 13, N-((S)-1-{(S)-1-[(S)-2-methyl-1-(2-morpholin-4-yl-2-oxo-ethylaminooxalyl)-propylcarbamoyl]-ethylcarbamoyl}-2-phenyl-ethyl)-benzamide] | – | not significant | – | – | – | significant | BAL neutrophil response: significance of effect (P<0.05) (unsensitized BN rats; pre-treatment at 240 min): not significant |
| CC(C)[C@H](NC(=O)[C@H](C)NC(=O)[C@@H](NC(=O)c1ccccc1C(=O)O)C(C)(C)C)C(=O)C(=O)NCC(=O)N1CCN(C)CC1 [Compound 14, 2-(((S)-3,3-dimethyl-1-(((S)-1-(((S)-4-methyl-1-((2-(4-methylpiperazin-1-yl)-2-oxoethyl)amino)-1,2-dioxopentan-3-yl)amino)-1-oxopropan-2-yl)amino)-1-oxobutan-2-yl)carbamoyl)benzoic acid] | – | – | – | – | significant | significant | – |
| CC(C)[C@H](NC(=O)[C@H](C)NC(=O)[C@@H](NC(=O)c1ccccc1)C12CC3CC(CC(C3)C1)C2)C(=O)C(=O)NCC(=O)N1CCN(C)CC1 [Compound 15, N-[(S)-adamantan-1-yl-((S)-1-{(S)-2-methyl-1-[2-(4-methyl-piperazin-1-yl)-2-oxo-ethylaminooxalyl]-propylcarbamoyl}-ethylcarbamoyl)-methyl]-benzamide] | useful in vivo activity | – | – | – | significant | significant | – |
| N-((S)-1-(((S)-1-(((S)-1-(cyclohexylamino)-4-methyl-1,2-dioxopentan-3-yl)amino)-1-oxopropan-2-yl)amino)-3,3-dimethyl-1-oxobutan-2-yl)isoquinoline-4-carboxamide [Compound 6] | – | not significant | significant | – | – | – | BAL neutrophil response: significance of effect (P<0.05) (unsensitized BN rats; [1]): significant; BAL neutrophil response: significance of effect (P<0.05) (unsensitized BN rats; pre-treatment at 120 min): not significant |
